Values after ≈ are worked out from the molar mass of the structure shown. Read-outs that look alike come from different tables or passages of the source. Values belong to the molecule of their own block, whether it stands above or below them.
Experiments:
[1] = test system: Moderately vancomycin-resistant Enterococci faecium with the VanA gene (WHO-3); assay: MIC by agar dilution, VRE (WHO-3); type: cell-based
From the text: (§1) A panel of multiple resistance Gram-positive and Gram-negative pathogens listed in Tables 1 and 2 was used to evaluate the antimicrobial activity of marinopyrrole derivatives (Chart 1) with vancomycin as a positive control. Except for those marked with WHO, all pathogens were isolated between 2008 and 2010 in hospitals located in Beijing; Guangzhou; Sichuan, Shandong and Jiangsu Province. Determination of the minimum inhibitory concentration (MIC) was done by the guidelines of the Clinical and Laboratory Standards Institute (Clinical and Laboratory Standards Institute, Performance standards for antimicrobial susceptibility testing, seventeenth informational supplement. 2007, 27, M100-S17). The susceptibility tests of a bacterial strain to a marinopyrrole derivative were performed by an agar dilution method. Briefly, each sterile petri dish contained a final volume of 15 mL comprising 1 mL of a marinopyrrole derivative and 14 mL of Mueller-Hinton broth. The concentrations of a marinopyrrole derivative are 128, 64, 32, 16, 8, 4, 2, 1, 0.5, 0.25, 0.125, 0.06, 0.03, 0.015 and 0.008 μg/mL. The petri dish containing the broth with different concentration of antibiotics was first inoculated with 10^5 CFU/mL (Denley A400, United Kingdom) and the culture was then incubated with shaking at 35-37° C. for 18-20 h. The potency of the compound was determined and expressed as minimum inhibitory concentration (MIC) in μg/mL. The MIC was determined as the lowest concentration of antibiotic that inhibited visible bacterial growth.

[2] = test system: Methicillin-resistant Staphylococcus aureus with the mec A gene and PBP2a (WHO-31); assay: MIC by agar dilution, MRSA (WHO-31); type: cell-based
From the text: as §1

[3] = test system: Methicillin-resistant Staphylococcus aureus (MRSA); assay: MIC by agar dilution, MRSA clinical isolates; type: cell-based; settings: for MIC: MRSA
From the text: as §1

[4] = test system: Methicillin-resistant Staphylococcus epidermidis (MRSE); assay: MIC by agar dilution, MRSE clinical isolates; type: cell-based; settings: for MIC: MRSE
From the text: as §1

[5] = test system: Methicillin-susceptible Staphylococcus aureus (MSSA); assay: MIC by agar dilution, MSSA clinical isolates; type: cell-based; settings: MSSA
From the text: as §1

[6] = test system: Oxacillin-resistant Staphylococcus aureus (WHO-25); assay: MIC by agar dilution, ORSA (WHO-25); type: cell-based
From the text: as §1

K. penumonia = assay: MIC by agar dilution, K. penumonia; type: cell-based, K. pneumonia
From the text: as §1

[7] = test system: Highly vancomycin-resistant Enterococci faecalis (VRE); assay: MIC by agar dilution, highly resistant VRE; type: cell-based
From the text: as §1

P. aeruginosa = assay: MIC by agar dilution, P. aeruginosa; type: cell-based
From the text: as §1

E. coli = assay: MIC by agar dilution, E. coli; type: cell-based
From the text: as §1

[8] = Staphylococcus aureus, Table 3, data from 8 isolates, read-out: MIC
[9] = Staphylococcus aureus, Table 1, 10 isolates
[10] = Staphylococcus aureus, Table 2, data from 8 isolates
[11] = Staphylococcus aureus, Table 3, data from 8 isolates
[12] = Staphylococcus aureus, Table 2, WHO-31, read-out: MIC
[13] = Staphylococcus aureus, Table 2, data from 8 isolates, read-out: MIC
[14] = Staphylococcus epidermidis, Table 2, data from 4 isolates, read-out: MIC
[15] = Enterococcus, Table 2, WHO-3, read-out: MIC
[16] = Staphylococcus aureus, Table 2, WHO-25, read-out: MIC

SMILES: O=C(c1ccccc1O)c1[nH]c(Cl)c(Cl)c1-n1c(C(=O)c2ccccc2O)cc(Cl)c1Cl (racemic) [Compound 1, marinopyrrole A, reference compound]
higher potency than vancomycin (fold) ([1]; against moderately resistant VRE (Table 1)): 128-256 fold

SMILES: Cc1cc(O)c(C(=O)c2[nH]c(Cl)c(Cl)c2-n2c(C(=O)c3cc(Cl)c(C)cc3O)cc(Cl)c2Cl)cc1Cl [CCW14]
MIC ([2]; Staphylococcus aureus, Table 3, WHO-31, read-out: MIC): 1 µg/mL (≈ 1.65 µM)
MIC [3, 8]: 1 µg/mL (≈ 1.65 µM)
MIC ([4]; Staphylococcus epidermidis, Table 3, data from 4 isolates, read-out: MIC): 1 µg/mL (≈ 1.65 µM)
MIC ([1]; Enterococcus, Table 3, WHO-3, read-out: MIC): 4 µg/mL (≈ 6.59 µM)
MIC [5, 8]: 1 µg/mL (≈ 1.65 µM)
MIC ([6]; Staphylococcus aureus, Table 3, WHO-25, read-out: MIC): 4 µg/mL (≈ 6.59 µM)

SMILES: O=C(c1ccccc1O)c1[nH]c(Cl)c(Cl)c1-n1c(C(=O)c2ccccc2O)cc(Cl)c1Cl [Compound 1, marinopyrrole A, reference compound]
MIC ([2]; Staphylococcus aureus): 1 µg/mL (≈ 1.96 µM)
MIC ([2]; Staphylococcus aureus, MRSA): 1 µg/mL (≈ 1.96 µM)
MIC ([2]; Table 3, WHO-31): 1 µg/mL (≈ 1.96 µM)
MIC (K. penumonia; Klebsiella pneumoniae): > 128 µg/mL
MIC [3, 9]: 1 µg/mL (≈ 1.96 µM)
MIC [3, 10]: 0.5 to 1 µg/mL (≈ 0.98 to 1.96 µM)
MIC [3, 11]: 0.5 to 1 µg/mL (≈ 0.98 to 1.96 µM)
MIC [7]: 16 to 128 µg/mL (≈ 31.4 to 251 µM)
MIC ([4]; Staphylococcus epidermidis, Table 1, 3 isolates): 0.06 to 1 µg/mL (≈ 0.118 to 1.96 µM)
MIC ([4]; Staphylococcus epidermidis, Table 2, data from 4 isolates): 0.25 µg/mL (≈ 0.49 µM)
MIC ([4]; Staphylococcus epidermidis, Table 3, data from 4 isolates): 0.25 µg/mL (≈ 0.49 µM)
MIC (P. aeruginosa; Pseudomonas aeruginosa): > 128 µg/mL
MIC ([1]; Enterococcus): 1 µg/mL (≈ 1.96 µM)
MIC ([1]; Enterococcus, VRE): 0.5 to 1 µg/mL (≈ 0.98 to 1.96 µM)
MIC ([1]; Table 3, WHO-3): 1 µg/mL (≈ 1.96 µM)
MIC [5, 9]: 0.5 to 1 µg/mL (≈ 0.98 to 1.96 µM)
MIC [5, 10]: 0.5 µg/mL (≈ 0.98 µM)
MIC [5, 11]: 0.5 µg/mL (≈ 0.98 µM)
MIC (E. coli; Escherichia coli): > 128 µg/mL
MIC ([6]; Staphylococcus aureus, Table 1, ORSA (WHO-25), 1 isolate): 1 µg/mL (≈ 1.96 µM)
MIC ([6]; Staphylococcus aureus, Table 3, WHO-25): 1 µg/mL (≈ 1.96 µM)
MIC ([6]; Staphylococcus aureus, Table 2, WHO-25): 1 µg/mL (≈ 1.96 µM)

SMILES: COc1ccccc1C(=O)c1[nH]c(Cl)c(Cl)c1-n1c(C(=O)c2ccccc2OC)cc(Cl)c1Cl [Compound 1c]
MIC ([2]; Table 1, MRSA (WHO-31), 1 isolate): 4 µg/mL (≈ 7.43 µM)
MIC (K. penumonia; Table 1, K. penumonia, 4 isolates, value over three Gram-negative pathogens): >128 µg/mL
MIC ([3]; Table 1, 10 isolates): 4 to 16 µg/mL
MIC ([7]; Table 1, VRE (highly vancomycin-resistant E. faecalis), 2 isolates): >128 µg/mL
MIC ([4]; Table 1, 3 isolates): 2 to 4 µg/mL
MIC (P. aeruginosa; Table 1, P. aeruginosa, 4 isolates, value over three Gram-negative pathogens): >128 µg/mL
MIC ([1]; Table 1, VRE (WHO-3), 1 isolate): 2 µg/mL (≈ 3.72 µM)
MIC ([5]; Table 1, 10 isolates): 4 to 16 µg/mL
MIC (E. coli; Table 1, E. coli, 4 isolates, value over three Gram-negative pathogens): >128 µg/mL
MIC ([6]; Table 1, ORSA (WHO-25), 1 isolate): 8 µg/mL (≈ 14.9 µM)

MIC [2, 12]: 8 µg/mL (≈ 13.1 µM)
MIC [3, 13]: 32 µg/mL (≈ 52.4 µM)
MIC [4, 14]: 4 to 8 µg/mL (≈ 6.55 to 13.1 µM)
MIC [1, 15]: 4 µg/mL (≈ 6.55 µM)
MIC [5, 13]: 32 µg/mL (≈ 52.4 µM)
MIC [6, 16]: 8 µg/mL (≈ 13.1 µM)
SMILES: O=C(c1cc(Cl)c(O)cc1O)c1[nH]c(Cl)c(Cl)c1-n1c(C(=O)c2cc(Cl)c(O)cc2O)cc(Cl)c1Cl [Compound 19, (4,4′,5,5′-Tetrachloro-1′H-1,3′-bipyrrole-2,2′-diyl)bis((5-chloro-2,4-dihydroxyphenyl)methanone)]
fold decreased potency compared with compound 1m ([3]; against MRSA): 4-16 fold
fold decreased potency compared with compound 1m ([4]; against MRSE): 2-16 fold

MIC [2, 12]: 2 µg/mL (≈ 3.69 µM)
MIC [3, 13]: 2 µg/mL (≈ 3.69 µM)
MIC [4, 14]: 2 to 8 µg/mL (≈ 3.69 to 14.8 µM)
MIC [1, 15]: 4 µg/mL (≈ 7.38 µM)
MIC [5, 13]: 2 µg/mL (≈ 3.69 µM)
MIC [6, 16]: 4 µg/mL (≈ 7.38 µM)
SMILES: O=C(c1ccc(O)cc1O)c1[nH]c(Cl)c(Cl)c1-n1c(C(=O)c2ccc(O)cc2O)cc(Cl)c1Cl [Compound 24, (4,4′,5,5′-Tetrachloro-1′H-1,3′-bipyrrole-2,2′-diyl)bis((2,4-dihydroxyphenyl)methanone)]

MIC ([2]; Table 2, WHO-31): 16 µg/mL (≈ 21.4 µM)
MIC ([3]; Table 2, data from 8 isolates): 32 to 64 µg/mL
MIC ([4]; Table 2, data from 4 isolates): 8 µg/mL (≈ 10.7 µM)
MIC ([1]; Table 2, WHO-3): 2 µg/mL (≈ 2.68 µM)
MIC ([5]; Table 2, data from 8 isolates): 64 µg/mL (≈ 85.7 µM)
MIC ([6]; Table 2, WHO-25): 64 µg/mL (≈ 85.7 µM)
SMILES: CCOC(=O)CSc1ccc(C(=O)c2[nH]c(Cl)c(Cl)c2-n2c(C(=O)c3ccc(SCC(=O)OCC)cc3O)cc(Cl)c2Cl)c(O)c1 [Compound 25]
